Results published in US20260258172A1, “CATIONIC POLYMERS WITH SELECTIVE ANTIFUNGAL PROPERTIES” (Uniwersytet Jagiellonski, priority 2022, published 2026).

Experiments:
Experiment in all cases: Antifungal microdilution MIC test
Format in all cases: cell-based
[1] = tested on: Trichophyton tonsurans 264; settings: comparative test
Method: (§1) In vitro tests of the antifungal activity of the polymers were performed with respect to selected fungal species obtained from international culture collections and the microorganism collection in the Department of Infection Control and Mycology, Chair of Microbiology, Jagiellonian University Medical College. The test was performed using the microdilution method in a liquid medium on flat-bottomed, 96-well polypropylene titration plates. The applied methodology was based on antifungal susceptibility testing procedures developed by the European Committee on Antimicrobial Susceptibility Testing (EUCAST) and on the Hancock Lab procedure for antimicrobial cationic peptides.
(§2) The test compounds were dissolved in sterile distilled water and starting concentrations of 5 g/L were prepared, from which a series of two-fold dilutions in water were obtained. Respective polymer dilutions were transferred in a volume of 20 μL on titration plates (wells 1-10). 20 μL of sterile distilled water was transferred to each of wells 11 and 12. Wells 1-11 were inoculated with fungi in a volume of 180 μL of fungal cell suspensions in a liquid medium, and 180 μL of the sterile medium was transferred to well 12. Fungal suspensions were prepared from fresh cultures on agar media by collecting spores using a sterile swab into sterile distilled water or sterile distilled water with Tween-20 added. Suspensions of certain strains were filtered to remove any hyphal elements (filters with a pore diameter of 20 μm and 10 μm were used). The suspensions were brought to a density of 0.5 on the McFarland scale, and subsequently diluted to 1:20 in a liquid RPMI-1640 medium with L-glutamine and without sodium bicarbonate, supplemented with glucose (2%) and buffered morpholinopropanesulfonic acid (MOPS) (0.165 mol/L).
(§3) Final polymer concentrations on plates after adding fungal suspensions in the liquid medium were 0.49-250 mg/L or 0.98-500 mg/L.
(§4) Incubation was performed at room temperature, 27° C., 37° C., depending on the fungal species, until fungal growth was obtained in growth control (well 11). After the incubation period, fungal growth was evaluated visually and the lowest polymer concentrations that caused complete fungal growth inhibition (MIC (minimal inhibitory concentration) values) were determined.
(§5) A test was performed on selected fungal strains to compare MIC values of the PMAPTAC133 polymer with the MIC values of two known antifungal drugs (terbinafine and ciclopirox), used in the treatment of fungal infections of glabrous skin, hairy skin and nails.
(§6) The procedure described in the section above (Example 8) was used in the testing.
(§7) The drugs were dissolved in dimethyl sulfoxide (DMSO) and starting concentrations of 4 g/L were prepared, from which series of two-fold dilutions in DMSO were obtained. Respective […] concentrations were diluted to 1:100 in sterile water and subsequently transferred to wells 1-10 on a titration plate in a volume of 20 μL. Wells 11 and 12 were filled up with 20 μL DMSO diluted to 1:10 in water. Wells 1-11 were inoculated with fungi in a volume of 180 μL of fungal cell suspensions in a liquid medium, and […] of the sterile medium was transferred to well 12. Final drug concentrations on plates after adding fungal suspensions in the liquid medium were 0.008-4 mg/L.

Trichophyton rubrum D320 = settings: comparative test
Method: as §1, §2, §3, §4, §5, §6, §7

[2] = tested on: Scopulariopsis brevicaulis DSM 9122; settings: DSM9122, comparative test
Method: as §1, §2, §3, §4, §5, §6, §7

[3] = tested on: Trichophyton mentagrophytes ATCC 18484; settings: comparative test; for MIC: Trichophyton mentagrophytes, ATCC18484
Method: as §1, §2, §3, §4, §5, §6, §7

[4] = tested on: Aspergillus brasiliensis ATCC 16404; settings: comparative test; for MIC: Aspergillus brasiliensis, ATCC16404
Method: as §1, §2, §3, §4, §5, §6, §7

[5] = tested on: Trichophyton interdigitale DSM4167; settings: comparative test
Method: as §1, §2, §3, §4, §5, §6, §7

[6] = tested on: Trichophyton rubrum DSM 16111; settings: DSM16111, comparative test
Method: as §1, §2, §3, §4, §5, §6, §7

Trichophyton rubrum D197 = settings: comparative test
Method: as §1, §2, §3, §4, §5, §6, §7

[7] = tested on: Trichophyton tonsurans DSM 12285; settings: DSM12285, comparative test
Method: as §1, §2, §3, §4, §5, §6, §7

Cryptococcus neoformans = settings: comparative test; for MIC: Cryptococcus neoformans
Method: as §1, §2, §3, §4, §5, §6, §7

[8] = tested on: Aspergillus terreus DSM 1958; settings: comparative test; for MIC: Aspergillus terreus, DSM1958
Method: as §1, §2, §3, §4, §5, §6, §7

[9] = tested on: Fusarium solani strain 155; settings: comparative test
Method: as §1, §2, §3, §4, §5, §6, §7

[10] = tested on: Scopulariopsis brevicaulis 34; settings: comparative test
Method: as §1, §2, §3, §4, §5, §6, §7

[11] = tested on: Candida albicans ATCC 90028; settings: ATCC90028, comparative test
Method: as §1, §2, §3, §4, §5, §6, §7

[12] = tested on: Trichophyton interdigitale D182; settings: comparative test
Method: as §1, §2, §3, §4, §5, §6, §7

[13] = tested on: Aspergillus flavus ATCC 204304; settings: comparative test; for MIC: Aspergillus flavus, ATCC204304
Method: as §1, §2, §3, §4, §5, §6, §7

[14] = tested on: Aspergillus fumigatus SU 56; settings: comparative test; for MIC: Aspergillus fumigatus, SU56
Method: as §1, §2, §3, §4, §5, §6, §7

[15] = tested on: Trichophyton interdigitale 251; settings: comparative test
Method: as §1, §2, §3, §4, §5, §6, §7

Cc1cc(C2CCCCC2)n(O)c(=O)c1 [Ciclopirox, ciclopirox]
>4 slight mg/L: concentration with slight growth suppression (Cryptococcus neoformans; incubation time 24 h)
> 4 µg/mL: MIC ([1]; incubation time 48 h) | MIC ([1]; incubation time 72 h) | MIC (Trichophyton rubrum D320; incubation time 24 h) | MIC (Trichophyton rubrum D320; incubation time 48 h) | MIC (Trichophyton rubrum D320; incubation time 72 h) | MIC ([2]; incubation time 24 h) | MIC ([2]; incubation time 48 h) | MIC ([3]; incubation time 24 h) | MIC ([3]; incubation time 48 h) | MIC ([3]; incubation time 72 h) | MIC ([4]; incubation time 24 h) | MIC ([4]; incubation time 48 h) | MIC ([5]; incubation time 24 h) | MIC ([5]; incubation time 48 h) | MIC ([5]; incubation time 72 h) | MIC ([6]; incubation time 24 h) | MIC ([6]; incubation time 48 h) | MIC ([6]; incubation time 72 h) | MIC (Trichophyton rubrum D197; incubation time 48 h) | MIC (Trichophyton rubrum D197; incubation time 72 h) | MIC ([7]; incubation time 48 h) | MIC ([7]; incubation time 72 h) | MIC (Cryptococcus neoformans; incubation time 24 h) | MIC (Cryptococcus neoformans; incubation time 48 h) | MIC ([8]; incubation time 24 h) | MIC ([8]; incubation time 48 h) | MIC ([9]; incubation time 24 h) | MIC ([9]; incubation time 48 h) | MIC ([10]; incubation time 24 h) | MIC ([10]; incubation time 48 h) | MIC ([11]; incubation time 24 h) | MIC ([11]; incubation time 48 h) | MIC ([12]; incubation time 24 h) | MIC ([12]; incubation time 48 h) | MIC ([12]; incubation time 72 h) | MIC ([13]; incubation time 24 h) | MIC ([13]; incubation time 48 h) | MIC ([14]; incubation time 24 h) | MIC ([14]; incubation time 48 h) | MIC ([15]; incubation time 24 h) | MIC ([15]; incubation time 48 h) | MIC ([15]; incubation time 72 h)

CN(C/C=C/C#CC(C)(C)C)Cc1cccc2ccccc12 [Terbinafine, terbinafine]
>4 mg/L: concentration with growth suppression ([14]; incubation time 48 h)
0.06 µg/mL: MIC ([6]; incubation time 24 h)
0.25 µg/mL: MIC ([5]; incubation time 48 h) | MIC ([5]; incubation time 72 h) | MIC ([6]; incubation time 48 h) | MIC ([6]; incubation time 72 h) | MIC (Trichophyton rubrum D197; incubation time 72 h) | MIC ([7]; incubation time 48 h) | MIC ([7]; incubation time 72 h) | MIC ([12]; incubation time 48 h)
0.5 µg/mL: MIC ([1]; incubation time 48 h) | MIC ([1]; incubation time 72 h) | MIC ([3]; incubation time 48 h) | MIC ([12]; incubation time 72 h)
> 4 µg/mL: MIC ([2]; incubation time 24 h) | MIC ([2]; incubation time 48 h) | MIC ([4]; incubation time 48 h) | MIC (Cryptococcus neoformans; incubation time 24 h) | MIC (Cryptococcus neoformans; incubation time 48 h) | MIC ([8]; incubation time 48 h) | MIC ([9]; incubation time 24 h) | MIC ([9]; incubation time 48 h) | MIC ([10]; incubation time 24 h) | MIC ([10]; incubation time 48 h) | MIC ([11]; incubation time 24 h) | MIC ([11]; incubation time 48 h) | MIC ([13]; incubation time 48 h) | MIC ([14]; incubation time 48 h)
0.125 µg/mL: MIC (Trichophyton rubrum D320; incubation time 48 h) | MIC ([3]; incubation time 24 h) | MIC (Trichophyton rubrum D197; incubation time 48 h)
1 µg/mL: MIC ([3]; incubation time 72 h) | MIC ([15]; incubation time 72 h)
2 mg/L: concentration with (clear) growth suppression ([4]; incubation time 48 h) | concentration with growth suppression ([8]; incubation time 48 h) | concentration with growth suppression ([13]; incubation time 48 h)
0.25 mg/L: concentration with marginal growth ([3]; incubation time 48 h)
4 µg/mL: MIC ([13]; incubation time 24 h) | MIC ([14]; incubation time 24 h)
2 µg/mL: MIC (Trichophyton rubrum D320; incubation time 72 h) | MIC ([4]; incubation time 24 h) | MIC ([8]; incubation time 24 h)
